Target: T1, ph01207 (Homo sapiens, UniProt O60241, DEL308-362)
T1 construct: containing an ORF that encodes 1518 amino acid residues; expressed in transfected cells; host or cells: CHO-K1 (clone ph01207 #3F8-17)
Assay: Inhibition of the CCK-8S response (intracellular Ca2+), ph01207 #3F8-17 cell line
Format: cell-based
Settings: for response of ph01207 #3F8-17 cell line to the ligand (increase in intracellular Ca^2+ by CCK-8S): compound 10 µg/mL added 35 sec before 10 nM CCK-8S, buffer as control
Experimental: Identification of a compound that inhibits a response of ph01207 gene product to a ligand was carried out with a system for measuring a change in intracellular calcium concentration using ph01207 expressing cell line.
ph01207 expressing cell line was constructed as follows. […] Detection of the expression of introduced genes in cells was carried out by FCM analysis using anti-ph01207 antibody
As a result, a plurality of cell lines that stably expressed ph01207 was obtained. Identification of a compound was carried out using ph01207 #3F8-17 cell line that was one of clones among them.
As a ligand, CCK-8S (Peptide Institute) was used. 0.52 mg of CCK-8S (SEQ ID NO: 14) was dissolved in 4.5 mL of 1% NaHCO3 (Wako) to prepare a solution of 0.1 mM concentration. As a test compound, SoftFocus GPCR Target-Directed Library that is a compound library (BioFocus) was used. A 2 mg/mL DMSO solution of each compound was diluted 25-fold with PBS to adjust the concentration to 80 µg/mL for use.
Specifically, identification of a compound was carried out as follows. ph01207 #3F8-17 cell line was seeded in 96-well plates with a black wall surface and transparent bottom) at 3 × 10^4 cells /100 µL medium/well, and cultured at 37°C in the presence of 5% CO2. DMEM/F12 (supplied by Gibco) containing 10% fetal calf serum (supplied by Moregate) was used as the medium. On the next day, 20 µL of 6 × loading buffer was added to each well to allow for a reaction at 37°C for 1 h so as to allow cells to incorporate fluorescent dye contained in the loading buffer. The 6 × loading buffer was prepared by dissolving component A of the FLIPR Calcium 3 Assay Kit (Molecular Devices Corp.) with component B followed by adding probenecid (Sigma) to have a final concentration of 15 mM. After the reaction, CCK-8S (Peptide Institute) and a compound were added to measure a change in the fluorescence intensity time-dependently for each well for 80 sec. […] A time-dependent measurement of the change in the fluorescence intensity was carried out using FLEXstation (Molecular Devices Corp.).

T1 sequence (O60241 with tags, fused parts or gaps isoform O60241-3 DEL296-350): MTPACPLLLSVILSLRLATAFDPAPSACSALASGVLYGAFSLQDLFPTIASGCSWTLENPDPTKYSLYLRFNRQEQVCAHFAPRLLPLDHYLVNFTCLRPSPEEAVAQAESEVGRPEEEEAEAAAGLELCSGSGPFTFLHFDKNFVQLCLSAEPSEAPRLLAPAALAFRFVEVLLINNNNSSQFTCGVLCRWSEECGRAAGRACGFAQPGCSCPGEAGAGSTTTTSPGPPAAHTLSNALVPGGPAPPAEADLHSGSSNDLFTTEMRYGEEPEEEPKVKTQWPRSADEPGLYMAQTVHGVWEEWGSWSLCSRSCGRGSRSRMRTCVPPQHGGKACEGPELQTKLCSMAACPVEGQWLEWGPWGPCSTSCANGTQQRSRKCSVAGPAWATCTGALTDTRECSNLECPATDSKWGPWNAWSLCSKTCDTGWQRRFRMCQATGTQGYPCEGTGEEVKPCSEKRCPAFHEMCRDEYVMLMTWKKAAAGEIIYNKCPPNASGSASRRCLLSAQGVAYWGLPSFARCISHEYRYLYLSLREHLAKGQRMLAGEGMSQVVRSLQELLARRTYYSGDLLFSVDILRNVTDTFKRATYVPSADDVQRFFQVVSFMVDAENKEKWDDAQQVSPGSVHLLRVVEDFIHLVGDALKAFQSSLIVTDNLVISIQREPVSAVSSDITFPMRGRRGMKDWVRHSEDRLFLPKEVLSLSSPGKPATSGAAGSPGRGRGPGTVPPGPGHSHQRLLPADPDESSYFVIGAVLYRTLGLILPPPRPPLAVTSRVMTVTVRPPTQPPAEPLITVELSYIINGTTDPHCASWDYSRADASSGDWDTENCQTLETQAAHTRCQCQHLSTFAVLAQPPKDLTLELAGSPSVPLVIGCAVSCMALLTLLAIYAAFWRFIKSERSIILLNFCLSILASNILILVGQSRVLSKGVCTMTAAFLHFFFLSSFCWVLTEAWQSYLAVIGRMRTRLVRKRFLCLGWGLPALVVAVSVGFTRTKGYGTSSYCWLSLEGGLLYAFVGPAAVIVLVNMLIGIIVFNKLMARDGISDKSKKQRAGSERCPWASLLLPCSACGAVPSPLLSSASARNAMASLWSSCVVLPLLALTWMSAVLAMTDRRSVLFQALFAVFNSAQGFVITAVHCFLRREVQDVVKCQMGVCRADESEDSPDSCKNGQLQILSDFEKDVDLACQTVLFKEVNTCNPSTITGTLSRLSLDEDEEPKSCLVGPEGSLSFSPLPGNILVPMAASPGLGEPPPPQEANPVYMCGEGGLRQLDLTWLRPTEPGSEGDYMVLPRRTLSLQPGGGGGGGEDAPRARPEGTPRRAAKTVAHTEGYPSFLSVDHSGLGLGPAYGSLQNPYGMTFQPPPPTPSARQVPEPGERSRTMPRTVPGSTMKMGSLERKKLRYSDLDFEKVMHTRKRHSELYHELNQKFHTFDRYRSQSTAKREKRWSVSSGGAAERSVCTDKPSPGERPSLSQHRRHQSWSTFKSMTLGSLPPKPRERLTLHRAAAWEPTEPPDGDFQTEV

SMILES | change in fluorescence intensity on addition of the compound alone (ph01207 #3F8-17 cell line, compound 10 µg/mL added at 15 sec, before CCK-8S) | response of ph01207 #3F8-17 cell line to the ligand (increase in intracellular Ca^2+ by CCK-8S)
O=C(Nc1cccc(C(F)(F)F)c1)N1CCC2(C1)NCCc1c2[nH]c2ccccc12 (stereo not drawn) [compound A] | No change | –
O=C(Nc1ccccc1)N1CCC2(CC1)NCCc1c2[nH]c2ccccc12 [compound B] | – | inhibited
O=C(c1cnc2ccccc2c1)N1CCC2(CC1)OCc1ccccc1O2 [compound C] | – | inhibited
